Test: Inhibitory activity against enzyme MurD isolated from Escherichia coli

IC50 [nM] | SMILES
3200 | C[C@@H]1NC(=O)CCCCCCC[C@@H](C(=O)O)NC(=O)[C@H](C)NC1=O
5100 | C[C@@H]1NC(=O)CCCCCC[C@@H](C(=O)O)NC(=O)[C@H](C)NC1=O
2300 | C[C@@H]1NC(=O)[C@H](CO)NC(=O)CCCCCC[C@@H](C(=O)O)NC1=O
1900 | C[C@@H]1NC(=O)[C@H](COC(C)(C)C)NC(=O)CCCCCC[C@H](C(=O)O)NC1=O
1500 | C[C@@H]1NC(=O)CCCCCCC[C@H](C(=O)O)NC(=O)[C@H](C)NC1=O
700 | C[C@@H]1NC(=O)[C@H](CO)NC(=O)CCCCCC[C@H](C(=O)O)NC1=O
1500 | C[C@@H]1NC(=O)CCCCCC[C@H](C(=O)O)NC(=O)[C@H](C)NC1=O
9000 | C[C@@H]1NC(=O)[C@H](COC(C)(C)C)NC(=O)CCCCCC[C@@H](C(=O)O)NC1=O

Source: ChEMBL document CHEMBL1136828, “Macrocyclic inhibitors of the bacterial cell wall biosynthesis enzyme MurD” (Bioorg Med Chem Lett, 2003)
